Assay results published in patent US6737383B1, “Herbicidal oxadiazolidines” (priority 1999, dated 2004).

Columns and labels:
wild oat = assay: Test B pre/postemergence wild oat; type: in vivo, Avena fatua
Method in brief: (§1)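 Herbicidal effect was estimated by eye on a ten-point control scale after plants spent twelve to sixteen days in a greenhouse following soil or foliar treatment. Foliar sprays targeted plants at one to four leaves; all doses were formulated in a non-phytotoxic solvent with surfactant.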

cocklebur = assay: Test B pre/postemergence cocklebur; type: in vivo, Xanthium strumarium; conditions: for Cocklebur plant response rating (0 to 10 scale): 0 is no effect
Method in brief: as §1

crabgrass = assay: Test B pre/postemergence crabgrass; type: in vivo, Digitaria sanguinalis; conditions: for Crabgrass plant response rating (0 to 10 scale): 0 is no effect
Method in brief: as §1

wheat = assay: Test B pre/postemergence wheat; type: in vivo, Triticum aestivum
Method in brief: as §1

[1] = Preemergence, Rate 62 g/ha, scale of 0 to 10 where 0 is no effect and 10 is complete control
[2] = Preemergence, Rate 250 g/ha, scale 0 to 10, 0 is no effect, 10 is complete control
[3] = Preemergence, Rate 500 g/ha, scale of 0 to 10 where 0 is no effect and 10 is complete control
[4] = Rate 62 g/ha, Postemergence, scale of 0 to 10 where 0 is no effect and 10 is complete control
[5] = Rate 125 g/ha, Postemergence, scale 0 to 10
[6] = Preemergence, Rate 125 g/ha, 10 is complete control
[7] = Rate 500 g/ha, Postemergence, scale 0 to 10
[8] = Preemergence, Rate 31 g/ha, visual rating, scale 0 to 10 (0 no effect, 10 complete control)
[9] = Preemergence, Rate 250 g/ha, scale of 0 to 10 where 0 is no effect and 10 is complete control
[10] = Rate 125 g/ha, Preemergence, scale of 0 to 10 where 0 is no effect and 10 is complete control
[11] = Rate 31 g/ha, Postemergence, scale 0 to 10
[12] = Rate 500 g/ha, Postemergence, scale 0 to 10, 0 no effect, 10 complete control
[13] = Rate 125 g/ha, Postemergence, scale of 0 to 10 where 0 is no effect and 10 is complete control
[14] = Rate 250 g/ha, Postemergence, scale of 0 to 10 where 0 is no effect and 10 is complete control

SMILES | Wild oats plant response rating (wild oat; [1]) | Plant response rating, Wild oats (wild oat; [3]) | Wild oats plant response rating (wild oat; [4]) | Wild oats plant response rating (wild oat; [5]) | Plant response rating (0 to 10; 0 is no effect, 10 is complete control), Wild oats (wild oat; Rate 250 g/ha, Postemergence) | Cocklebur plant response rating (cocklebur; [1]) | Plant response rating, Cocklebur (cocklebur; [3]) | Cocklebur plant response rating (cocklebur; [4]) | Cocklebur plant response rating (cocklebur; [5]) | Plant response rating (0 to 10; 0 is no effect, 10 is complete control), Cocklebur (cocklebur; Rate 250 g/ha, Postemergence) | Plant response rating, Crabgrass (crabgrass; [3]) | Crabgrass plant response rating (crabgrass; [4]) | Crabgrass plant response rating (crabgrass; [5]) | Plant response rating (0 to 10; 0 is no effect, 10 is complete control), Crabgrass (crabgrass; Rate 250 g/ha, Postemergence) | Wheat plant response rating (wheat; [1]) | Plant response rating, Wheat (wheat; [3]) | Wheat plant response rating (wheat; [4]) | Wheat plant response rating (wheat; [5]) | Plant response rating (0 to 10; 0 is no effect, 10 is complete control), Wheat (wheat; Rate 250 g/ha, Postemergence) | Crabgrass plant response rating (crabgrass; [1]) | other results
CCC(CC)N(C(=O)n1oc(=O)n(-c2ccccc2C)c1=O)c1ccc(F)cc1 [Compound 193] | 0 | 0 | 0 | 0 | 0 | 0 | 0 | 0 | 0 | 0 | 7 | 0 | 0 | 0 | 0 | 0 | 0 | 0 | 0 | – | Wild oats plant response rating (wild oat; [2]): 0; Cocklebur plant response rating (0 to 10 scale) (cocklebur; [6]): 0; Cocklebur plant response rating (cocklebur; [2]): 0; Cocklebur plant response rating (cocklebur; [7]): 0; Crabgrass plant response rating (0 to 10 scale) (crabgrass; [6]): 4; Crabgrass plant response rating (crabgrass; [2]): 6; Crabgrass plant response rating (crabgrass; [7]): 0; Wheat plant response rating (wheat; [2]): 0
C=CCn1c(=O)on(C(=O)N(c2ccc(F)cc2)C2CCC2)c1=O [Compound 194] | 0 | 8 | 0 | 0 | 0 | 0 | 0 | 0 | 1 | 2 | – | 0 | 0 | 0 | 0 | 2 | 0 | 0 | 0 | 4 | Wild oats plant response rating (wild oat; [2]): 3; Cocklebur plant response rating (0 to 10 scale) (cocklebur; [6]): 0; Cocklebur plant response rating (cocklebur; [2]): 0; Cocklebur plant response rating (cocklebur; [7]): 2; Crabgrass plant response rating (0 to 10 scale) (crabgrass; [6]): 9; Crabgrass plant response rating (crabgrass; [2]): 9; Crabgrass plant response rating (crabgrass; [7]): 2; Wheat plant response rating (wheat; [2]): 0
Cc1ccccc1-n1c(=O)on(C(=O)N(c2ccc(Cl)cc2F)C(C)C)c1=O [Compound 195] | 0 | 4 | 0 | 0 | 0 | 0 | 0 | 0 | 2 | 2 | 9 | 0 | 0 | 2 | 0 | 0 | 0 | 0 | 0 | 3 | Wild oats plant response rating (wild oat; [2]): 0; Cocklebur plant response rating (0 to 10 scale) (cocklebur; [6]): 0; Cocklebur plant response rating (cocklebur; [2]): 0; Cocklebur plant response rating (cocklebur; [7]): 2; Crabgrass plant response rating (0 to 10 scale) (crabgrass; [6]): 4; Crabgrass plant response rating (crabgrass; [2]): 5; Crabgrass plant response rating (crabgrass; [7]): 5; Wheat plant response rating (wheat; [2]): 0
CCCCn1c(=O)on(C(=O)N(c2ccc(F)cc2)C(C)C)c1=O [Compound 221] | 2 | – | 0 | 0 | 2 | 0 | – | 0 | 0 | 0 | – | 2 | 6 | 8 | 0 | – | 0 | 2 | 4 | 6 | Wild oats plant response rating (wild oat; [8]): 2; Wild oats plant response rating (wild oat; [9]): 4; Wild oats plant response rating (wild oat; [10]): 2; Cocklebur plant response rating (cocklebur; [9]): 0; Cocklebur plant response rating (cocklebur; [11]): 0; Cocklebur plant response rating (cocklebur; [10]): 0; Crabgrass plant response rating (crabgrass; [8]): 2; Crabgrass plant response rating (crabgrass; [9]): 8; Crabgrass plant response rating (crabgrass; [11]): 0; Crabgrass plant response rating (crabgrass; [10]): 8; Wheat plant response rating (wheat; [8]): 0; Wheat plant response rating (wheat; [9]): 2; Wheat plant response rating (wheat; [10]): 2
CC(C)N(C(=O)n1oc(=O)n(CC2(C)COC2)c1=O)c1ccc(F)cc1 [Compound 226] | 1 | 10 | 0 | 0 | 0 | 0 | 0 | 0 | 0 | 0 | 10 | 0 | 0 | 3 | 6 | 8 | 2 | 4 | 7 | 5 | Wild oats plant response rating (wild oat; [9]): 9; Wild oats plant response rating (wild oat; [10]): 3; Wild oats plant response rating (wild oat; [12]): 3; Cocklebur plant response rating (cocklebur; [9]): 0; Cocklebur plant response rating (cocklebur; [10]): 0; Cocklebur plant response rating (cocklebur; [12]): 2; Crabgrass plant response rating (crabgrass; [9]): 10; Crabgrass plant response rating (crabgrass; [10]): 9; Crabgrass plant response rating (crabgrass; [12]): 8; Wheat plant response rating (wheat; [9]): 8; Wheat plant response rating (wheat; [10]): 8; Wheat plant response rating (wheat; [12]): 9
Cc1ccccc1-n1c(=O)on(C(=O)N(c2ccc(N(C)C)cc2)C(C)C)c1=O [Compound 237] | 0 | 0 | 0 | 0 | 0 | 0 | 0 | 0 | 0 | 0 | 3 | 0 | 0 | 0 | 0 | 0 | 0 | 0 | 0 | 0 | Wild oats plant response rating (wild oat; [9]): 0; Wild oats plant response rating (wild oat; [10]): 0; Wild oats plant response rating (wild oat; [12]): 0; Cocklebur plant response rating (cocklebur; [9]): 0; Cocklebur plant response rating (cocklebur; [10]): 0; Cocklebur plant response rating (cocklebur; [12]): 0; Crabgrass plant response rating (crabgrass; [9]): 2; Crabgrass plant response rating (crabgrass; [10]): 0; Crabgrass plant response rating (crabgrass; [12]): 0; Wheat plant response rating (wheat; [9]): 0; Wheat plant response rating (wheat; [10]): 0; Wheat plant response rating (wheat; [12]): 0
Cc1ccccc1-n1c(=O)on(C(=O)N(c2ccc(C(C)(C)C)cc2)C(C)C)c1=O [Compound 270] | 0 | 0 | – | – | – | 0 | 0 | 0 | – | – | 0 | – | – | – | 0 | 0 | – | – | – | 0 | Wild oats plant response rating (wild oat; [9]): 0; Wild oats plant response rating (wild oat; [13]): 0; Plant response rating, Wild oats (wild oat; [14]): 0; Wild oats plant response rating (wild oat; [12]): 0; Cocklebur plant response rating (cocklebur; [9]): 0; Cocklebur plant response rating (cocklebur; [13]): 0; Cocklebur plant response rating (cocklebur; [10]): 0; Plant response rating, Cocklebur (cocklebur; [14]): 0; Cocklebur plant response rating (cocklebur; [12]): 0; Crabgrass plant response rating (crabgrass; [9]): 0; Crabgrass plant response rating (crabgrass; [13]): 0; Crabgrass plant response rating (crabgrass; [10]): 0; Plant response rating, Crabgrass (crabgrass; [14]): 0; Crabgrass plant response rating (crabgrass; [12]): 0; Wheat plant response rating (wheat; [9]): 0; Wheat plant response rating (wheat; [13]): 0; Wheat plant response rating (wheat; [10]): 0; Plant response rating, Wheat (wheat; [14]): 0; Wheat plant response rating (wheat; [12]): 0
